# Like-named read-outs stand apart in the source and are kept apart here.
# Columns and labels:
# [1] = system: HCT116 colon cancer, PC3 and DU145 prostate cancer cell lines; assay: MTT proliferation/viability assay; assay type: cell-based; settings: 72 h, FIGS. 1A-1D, HCT116 only compound 120
# Experimental: All assays were performed in triplicate.
# The effect of the different compounds on the proliferation and viability of cancer cell lines was tested. Compound 120 was tested in one colon cancer cell line (HCT116), and compound Nos. 120, 12, 61, 1, and 56 were tested in two prostate cancer cell lines (PC3 and DU145). […] This colorimetric assay uses the reduction of MTT to formazan as a measure of metabolic activity. Untreated cells cultured in the presence of serum were used as a negative control.
# [2] = system: 22 different cell lines, nine tumor panels (lung, melanoma, ovary, prostate, CNS, breast, pancreas colon and renal); assay: SRB assay, all tumor cell line panels (summary statements); assay type: cell-based, human; settings: for viability and/or cell proliferation of neoplastic cell lines: lung, breast, CNS, colon, prostate, ovary, pancreas, kidney and melanoma lines, including a multidrug resistant cell line
# Experimental: (§1) SRB assays were performed according to standard National Cancer Institute Guidelines. Briefly, human tumor cells from different cancer panels were seeded into 96 well plates in 100 μL (plating densities ranging from 5-40,000 cells/well depending on the doubling time of individual cell lines) in serum-containing media for twenty-four hours prior to the addition of the compounds to be assayed. After 24 hours, one plate of each cell line was fixed in situ with trichloroacetic acid (TCA). The fixed slides were used to determine the cell population for each cell line at the time of drug addition (Tz). Each compound to be tested was solubilized in DMSO and the desired concentration was then added to the medium and diluted serially 1:10 to provide a total of five or ten drug concentrations plus control (in a final volume of 200 μL). The starting dose before any dilution was 100 uM for all compounds.
# (§2) Following drug addition, each culture was incubated for forty-eight hours. The assay was terminated with the addition of cold TCA. The supernatant was discarded, and the plates were washed with tap water and air dried. Sulforhodamine B (SRB) solution was then added to each well. After staining, the bound stain was solubilized and the absorbance was read on an automated plate reader at a wavelength of 515 nm.
# (§3) Using the absorbance measurements [time zero, (Tz), control growth, (C), and test growth in the presence of drug at the ten concentration levels (Ti)], the percentage growth was calculated at each of the drug concentrations levels. Percentage growth inhibition was calculated as:
# Three dose response parameters were calculated for each experimental agent. […] The drug concentration resulting in total growth inhibition (TGI) was calculated from Ti=Tz. The LC50 (concentration of drug resulting in a 50% reduction in the measured protein at the end of the drug treatment as compared to that at the beginning) indicating a net loss of cells following treatment was calculated from [(Ti−Tz)/Tz]×100=−50.
# Each of these parameters in Table 4 was calculated in a sulforhodamine B (SRB) assay, which provides a colorimetric measure of a compound's anti-cancer activity. SRB assays were performed with compounds of the invention in 22 different cell lines (shaded in light gray in Table 4), which represent nine different tumor panels (lung, melanoma, ovary, prostate, CNS, breast, pancreas colon and renal). […] Paclitaxel was added as a non-Na^+K^+-ATPase inhibitor control.
# MCF7 (Breast) = assay: SRB assay, MCF7; assay type: cell-based, human; settings: for CC50 / GI50: Homo sapiens; for CC50: MCF7, 48 h, read-out: LC50; for GI50 / TGI: MCF7, SRB, 48 h
# Experimental: as §1, §2, §3
# (§4) [(Ti−Tz)/(C−Tz)]×100 for concentrations for which Ti>/=Tz
# (§5) [(Ti−Tz)/Tz]×100 for concentrations for which Ti<Tz.
# (§6) Three dose response parameters were calculated for each experimental agent. Growth inhibition of 50% (GI50) was calculated from [(Ti−Tz)/(C−Tz)]×100=50, which was the drug concentration resulting in a 50% reduction in the net protein increase (as measured by SRB staining) in control cells during the drug. The drug concentration resulting in total growth inhibition (TGI) was calculated from Ti=Tz. The LC50 (concentration of drug resulting in a 50% reduction in the measured protein at the end of the drug treatment as compared to that at the beginning) indicating a net loss of cells following treatment was calculated from [(Ti−Tz)/Tz]×100=−50.
# (§7) Values were calculated for each of these three parameters when the level of activity was reached; however, if the effect was not reached or was exceeded, the value for that parameter was expressed as greater or less than the maximum or minimum concentration tested.
# (§8) Table 4 summarizes results characterizing the effects of compound Nos. 120, 12, 61, 1, and 56 on GI50, which measures the cell growth inhibitory power of the compound, TGI, which measures cytostatic effect (TGI) and LC50, which signifies cytotoxic effect. Each of these parameters in Table 4 was calculated in a sulforhodamine B (SRB) assay, which provides a colorimetric measure of a compound's anti-cancer activity. SRB assays were performed with compounds of the invention in 22 different cell lines (shaded in light gray in Table 4), which represent nine different tumor panels (lung, melanoma, ovary, prostate, CNS, breast, pancreas colon and renal). Ouabain and digoxin were used as controls. Paclitaxel was added as a non-Na^+K^+-ATPase inhibitor control.
# IGROV1 (Ovary) = assay: SRB assay, IGROV1; assay type: cell-based, human; settings: for CC50 / GI50: Homo sapiens; for CC50: IGROV-1, 48 h, read-out: LC50; for GI50: IGROV-1; for GI50 / TGI: IGROV1, SRB, 48 h
# Experimental: as §1, §2, §3, §4, §5, §6, §7, §8
# HCT15 (Colon) = assay: SRB assay, HCT15; assay type: cell-based, human; settings: for TGI / GI50: HCT15, SRB, 48 h; for CC50 / GI50: Homo sapiens; for CC50: HCT-15, 48 h, read-out: LC50; for GI50: HCT-15
# Experimental: as §1, §2, §3, §4, §5, §6, §7, §8
# H160 (Lung) = assay: SRB assay, H160; assay type: cell-based, human; settings: 48 h; for TGI / GI50: H160, SRB; for CC50 / GI50: Homo sapiens; for CC50: read-out: LC50
# Experimental: as §1, §2, §3, §4, §5, §6, §7, §8
# U251 (CNS) = assay: SRB assay, U251; assay type: cell-based, human; settings: for CC50 / GI50: Homo sapiens; for CC50: read-out: LC50
# Experimental: as §1, §2, §3, §4, §5, §6, §7, §8
# LOXIMVI (Melanoma) = assay: SRB assay, LOXIMVI; assay type: cell-based, human; settings: 48 h; for CC50 / GI50: Homo sapiens, LOX IMVI; for CC50: read-out: LC50; for GI50 / TGI: LOXIMVI, SRB
# Experimental: as §1, §2, §3, §4, §5, §6, §7, §8
# SU8686 (Pancreas) = assay: SRB assay, SU8686; assay type: cell-based, human; settings: for CC50 / GI50: Homo sapiens; for CC50: SU.86.86, 48 h, read-out: LC50; for GI50: SU.86.86; for GI50 / TGI: SU8686, SRB, 48 h
# Experimental: as §1, §2, §3, §4, §5, §6, §7, §8
# [3] = U-251, U251, SRB, 48 h, read-out: GI50
Compound,inhibition of cell proliferation and viability (MTT) [1],"GI50 action in all cell line panels tested (in words) ([2]; SRB, all cell line panels)",viability and/or cell proliferation of neoplastic cell lines [2],CC50 (MCF7 (Breast)) [µM],GI50 (MCF7 (Breast)) [µM],TGI (MCF7 (Breast)) [µM],CC50 (IGROV1 (Ovary)) [µM],GI50 (IGROV1 (Ovary)) [µM],TGI (IGROV1 (Ovary)) [µM],TGI (HCT15 (Colon)) [µM],CC50 (HCT15 (Colon)) [µM],GI50 (HCT15 (Colon)) [µM],TGI (H160 (Lung)) [µM],CC50 (H160 (Lung)) [µM],GI50 (H160 (Lung)) [µM],"CC50 (U251 (CNS); U-251, 48 h) [µM]",GI50 (U251 (CNS); [3]) [µM],CC50 (LOXIMVI (Melanoma)) [µM],GI50 (LOXIMVI (Melanoma)) [µM],TGI (LOXIMVI (Melanoma)) [µM],other results
"C[C@]12CCC(=NOCCN)CC1CCC1C2CC[C@]2(C)C(=O)CCC12 (stereo partly drawn) [Compound 1, (10S,13S)-3-(2-aminoethoxyimino)-10,13-dimethyltetradecahydro-1H-cyclopenta[a]phenanthren-17(2H)-one]",strong inhibition of cell proliferation and viability,nanomolar GI50 action,reduced the viability and/or cell proliferation,–,–,–,–,–,–,–,–,–,–,–,–,–,–,–,–,–,–
"C[C@]12CCC(=NOCCN)C=C1CCC1C2CC[C@]2(C)C(=O)CCC12 (stereo partly drawn) [Compound 12, (10R,13S)-3-(2-aminoethoxyimino)-10,13-dimethyl-2,3,7,8,9,10,11,12,13,14,15,16-dodecahydro-1H-cyclopenta[a]phenanthren-17(6H)-one]",strong inhibition of cell proliferation and viability,mostly single-digit micromolar GI50 action,reduced the viability and/or cell proliferation,9.47,3.79,6.63,68.4,5.37,12.38,6.70,9.61,3.79,5.86,8.73,2.99,8.61,3.09,≥ 117,0.66,24.06,"TGI (U251 (CNS); U251, SRB, 48 h): 5.85 µM"
"C[C@]12CCC(=NOC3CCNC3)CC1CCC1C2CC[C@]2(C)C(=O)CCC12 (stereo partly drawn) [Compound 56, (10S,13S)-10,13-dimethyl-3-(pyrrolidin-3-yloxyimino)tetradecahydro-1H-cyclopenta[a]phenanthren-17(2H)-one]",strong inhibition of cell proliferation and viability,nanomolar GI50 action,reduced the viability and/or cell proliferation,–,–,–,–,–,–,–,–,–,–,–,–,–,–,–,–,–,"GI50 ([2]; Homo sapiens, SRB, all cell line panels, read-out: GI50 activity for all cell line panels tested): < 0.1 µM"
"C[C@]12CCC(=NOC3CCNC3)C=C1CCC1C2CC[C@]2(C)C(=O)CCC12 (stereo partly drawn) [Compound 61, (10R,13S)-10,13-dimethyl-3-(pyrrolidin-3-yloxyimino)-2,3,7,8,9,10,11,12,13,14,15,16-dodecahydro-1H-cyclopenta[a]phenanthren-17(6H)-one]",strong inhibition of cell proliferation and viability,nanomolar GI50 action,reduced the viability and/or cell proliferation,–,–,–,–,–,–,–,–,–,–,–,–,–,–,–,–,–,–
"C[C@]12CCC(=NOCCN)C=C1CCC1C2CC[C@@]2(C)C1CC[C@@H]2O (stereo partly drawn) [Compound 120, (1S,9aR,11aS)-17-hydroxy-10,13-dimethyl-6,7,8,9,10,11,12,13,14,15,16,17-dodecahydro-1H-cyclopenta[a]phenanthren-3(2H)-one O-2-aminoethyl oxime]",strong inhibition of cell proliferation and viability,mostly single-digit micromolar GI50 action,reduced the viability and/or cell proliferation,24.1,7.04,14.85,67.4,5.49,10.74,23.51,76.3,6.39,11.68,21.7,4.13,68.5,6.77,97.2,7.14,25.19,"TGI (U251 (CNS); U251, SRB, 48 h): 27.92 µM; CC50 (SU8686 (Pancreas)): 23.1 µM; GI50 (SU8686 (Pancreas)): 7.45 µM; TGI (SU8686 (Pancreas)): 15.27 µM"
"C[C@H]1O[C@@H](O[C@H]2[C@@H](O)C[C@H](O[C@H]3[C@@H](O)C[C@H](O[C@H]4CC[C@@]5(C)[C@H](CC[C@@H]6[C@@H]5C[C@@H](O)[C@]5(C)[C@@H](C7=CC(=O)OC7)CC[C@]65O)C4)O[C@@H]3C)O[C@@H]2C)C[C@H](O)[C@@H]1O [Digoxin, reference compound]",–,–,–,0.4,< 0.08,0.1,> 100,0.04,0.35,0.06,0.16,0.03,<0.08,0.3,< 0.08,0.61,–,> 100,0.08,>100,"TGI (U251 (CNS)): 0.10 µM; GI50 (U251 (CNS); U-251, 48 h): 0.02 µM; CC50 (SU8686 (Pancreas)): 0.63 µM; GI50 (SU8686 (Pancreas)): 0.03 µM; TGI (SU8686 (Pancreas)): 0.09 µM"
"CC(=O)O[C@H]1C(=O)[C@@]2(C)[C@H]([C@H](OC(=O)c3ccccc3)[C@]3(O)C[C@H](OC(=O)[C@H](O)[C@@H](NC(=O)c4ccccc4)c4ccccc4)C(C)=C1C3(C)C)[C@]1(OC(C)=O)CO[C@@H]1C[C@@H]2O [Paclitaxel, reference compound]",–,–,–,> 10,< 0.1,>10,10.6,0.001,3.305,0.852,12.3,0.053,3.7685,> 10,< 0.1,6.73,< 0.001,5.18,< 0.001,0.288,"TGI (U251 (CNS); U251, SRB, 48 h): 1.745 µM; CC50 (SU8686 (Pancreas)): 16.5 µM; GI50 (SU8686 (Pancreas)): 0.008 µM; TGI (SU8686 (Pancreas)): 7.927 µM"

# Reference: patent US20120238488A1, “COMPOUNDS AND METHODS FOR TREATING NEOPLASIA” (priority 2009, published 2012)
